For this data set, the system named is eGFP-654 transgene. Nature of the data set: eGFP protein restoration in liver by ELISA. In kind it is in vivo, mouse. The following applies: 1 week. Here is the method: Experiments were performed to determine if GalNAc conjugation to PMO or PMO-EEV could improve liver efficacy of PMO or PMO-EEV in EGFP-654 mice (Sazani et al., Nat Biotechnol. 2002 December; 20(12):1228-33. doi: 10.1038/nbt759.) in a single dosing schedule. Mice (EGFP-654, n=3/group; one female and two male) were injected intravenously (IV) with saline as control and 20 mpk of PMO1 and PMO1-EEV1; 0.2, 2, and 20 mpk (all normalized based on PMO dose) GalNAc-PMO2 and GalNAc-PMO2-EEV1 via both intravenous (TV) and subcutaneous (SC) route of administration. Both the PMO1 and the PMO2 have the same sequence and can be conjugated to EEV at the 3′ end, however, they have different functional handles at 5′ end. […] Thus, PMO1 is used as a control to when exploring the GalNAc liver targeting effects of the PMO2 GalNAc conjugates. An overview of the study design is illustrated in FIG. 16.
eGFP-654 transgenic mouse. The eGFP-654 transgenic mouse line was generated previously for evaluating splice switching oligonucleotides (Sazani et al. 2002 Nat Biotech; JAX stock #027617). The eGFP-654 transgene was cloned under a hybrid promoter with a cytomegalovirus early enhancer element, chicken beta-actin, and rabbit beta-globin, yielding widespread expression throughout the body. […]
eGFP relative protein analysis by […] (ELISA). […] Concentration was measured using a bicinchoninic acid (BCA) assay according to the manufacturer's protocol (Pierce BCA Protein Assay Kit 23227), diluting with the lysis buffer as needed. […] Sample eGFP levels were analyzed using enzyme-linked immunosorbent assay (ELISA) analysis with Abcam GFP ELISA kit (ab171581) according to the manufacturer's protocol. Sample eGFP levels were interpolated using the standard curve with the ELISA kit and reported as mass of eGFP detected (as measured by ELISA) per mass of protein content in the tissue lysate (as measured by BCA assay). the pg/mL of protein detected in each sample divided by the total protein concentration of lysates in ug/ml. […]

The source of these data is US20250228953A1, “INTRACELLULAR TARGETING OF OLIGONUCLEOTIDES” (Entrada Therapeutics, Inc., priority 2021, published 2025).

Regarding “PMO3-GalNAc-EEV1: "EEV1 was reacted with compound PMO1-Lys(BCN) with the following sequence (5′-GCT ATT ACC TTA ACC CAG-3′)"; "GalNAc-N3 was then reacted with PMO1-Lys(BCN)-EEV1" (DNA GCTATTACCTTAACCCAG; all phosphorodiamidate morpholino (PMO); PMO with Lys(BCN) linker bearing GalNAc and EEV1 cell-penetrating peptide)”, under “liver eGFP, 20 mpk IV”, the “fold enhancement of efficacy compared to PMO1” value was 14 fold and the “fold enhancement of efficacy compared to PMO1-EEV1” value is listed as 8.9 fold.
For the substance “Cyclo(FGFRRRRQ)-PEG12-OH (cyclo(FGFRRRRQ); also: PEG12-OH attached, position not clear) [EEV6]”, where the note is “liver, 20 mpk PMO equivalent IV”, the “eGFP protein restoration, different EEVs / GalNAc ligands conjugated to GalNAc-PMO2 constructs” value is listed as “highest eGFP protein restoration”.
